Results published in PMC7247683, “Molecular Drug Discovery of Single Ginsenoside Compounds as a Potent Bruton’s Tyrosine Kinase Inhibitor” (International Journal of Molecular Sciences, 2020).
Where two headings read alike, the source gives them in different places.

Tests used:
purified BTK = purified BTK (Homo sapiens, UniProt Q06187); test: FRET-based kinase assay (Z'-LYTE) for BTK inhibition; assay type: biochemical; conditions: 0.625 μg/mL purified BTK; for BTK inhibitory effect (inhibition %): 25, 50, and 100 μg/mL, depending on the concentration; for IC50: FRET assay
Method: For the identification of the BTK inhibitory activity of ginsenoside-derived candidate substances and the screening of them to show pharmacological efficacy, the BTK-inhibitory activity of ginsenoside compounds and their in vitro BTK inhibitory activity was measured as the inhibition rate (inhibition %) of the decreased phosphorylation rate compared to the BTK activity without ginsenoside treatment in a FRET assay.
In order to evaluate the BTK inhibitory activity of the ginsenoside compound, a kinase assay using a Z’-LYTE Kinase Assay Kit from Thermo Fisher Scientific was performed. A fluorescent microplate reader was used to measure the Fluorescence Resonance Energy Transfer (FRET) between coumarin and fluorescein dyes. The assay was optimized for BTK, as described in the manufacturer’s protocol. The BTK activity (%) was evaluated by measuring the ratio of the emission signal (445 nm/520 nm) according to the phosphorylation % of the substrate by BTK.

[1] = Solubility characterization in RPMI medium (absorbance at 540 nm, transparency); assay type: physicochemical; design: key to absorbance at 540 nm increased compared to the control / absorbance at 540 nm decreased compared to the control / absorbance at 540 nm reduced compared to the control: difference in OD at 540 nm vs untreated medium control
Excerpt: In spite of the promising pharmaceutical efficacies of the ginsenoside compounds, the therapeutic potential of ginsenosides is largely restricted by their lowering bioavailability when orally distributed (< 5%) due to their undesirable physicochemical properties, such as low water solubility, low biomembrane permeability, instability in the gastrointestinal fluid, and extensive body metabolism. Depending on the solubility of each candidate substance, the black text under the plate is clearly visible when dissolved well. Since UV/vis absorbance spectra-based turbidimetry has the advantage of being fast and non-destructive in common drug solubility tests, a determination of their turbidity or optical density (OD) in liquid cultures was employed to monitor the water-solubility of the ginsenoside candidates. The λmax of the UV/vis absorbance spectra of the ginsenoside compounds and their Roswell Park Memorial Institute (RPMI) medium were identical at 540 nm, and the difference in OD between the absorbances of the ginsenosides and the media, used only as a control, was plotted (Figure 4). The increased absorbance signals of the PPT and PPD were derived from the increased OD signal of turbidity-based interference by insoluble compounds in the medium. The corresponding UV/vis absorbance results of each candidate substance in the media is discussed as follows:
To determine the concentration of ginsenoside compounds to be treated on the cells, the solubility of each compound in RPMI-1640 medium was evaluated. Specifically, the solubility of each ginsenoside compound was observed by UV/vis absorbance at 540 nm, and the transparency of the medium was measured by the visually observed degree to which the marked black text at the bottom of the plate was visible (transparency of the medium). In addition, the change in absorbance at 540 nm compared to the control was measured by using the medium not treated with the ginsenoside compound as a control.

BTK [2] = biological target: T1, BTK (Homo sapiens, UniProt Q06187); test: Cell-based phosphorylation ELISA, p-BTK/BTK in Ramos cells; conditions: for BTK inhibitory activity (p-BTK/BTK, ELISA), in words: compared to Ibrutinib or the DMSO-treated group
T1 construct: host or cells: Ramos cells
Excerpt: Although BTK is almost constant in cells, the expression level of p-BTK varies depending on the degree of BTK activation and inhibition, and thus the expression level of p-BTK is based on the expression of BTK (p-BTK/BTK).
When BTK is activated or inhibited, the phosphorylation % of BTK is increased or decreased accordingly, which can be confirmed by the amount of phosphorylated BTK in the cell. After treating the ginsenoside compound on the cells, the amount of BTK inhibition of the ginsenoside compound was compared and analyzed by the amount of phosphorylated BTK in the cell. […] The BTK to GAPDH expression ratio was confirmed.
The Ramos cells (~1 × 10^4) were cultured in 96-well cell culture plates. […] Free DMSO was used as a negative control group. […] The expression level of each p-BTK and the expression level of BTK were compared and analyzed using the ratios (p-BTK/GAPDH and BTK/GAPDH) based on the expression level of each […]. Namely, the p-BTK/BTK ratio means the (p-BTK/GAPDH)/(BTK/GAPDH) ratio, which is simply expressed as p-BTK/BTK.

BTK [3] = biological target: T1, BTK; test: Western blotting, p-BTK/BTK in Ramos cells; assay type: cell-based; conditions: α-IgM stimulated, stimulation (α-IgM antibody (+), DMSO) group as reference (100%)
Method: The Ramos cells (~3 × 10^6) were famished of serum for 1 h and treated with ginsenosides for 1 h, and then washed with phosphate-buffered saline (Welgene, Korea), followed by stimulation with 1 μg/mL of goat F(ab’)2 anti-human IgM (Southern Biotech, Birmingham, AL, USA) for 10 min on ice. The cells were then lysed in a radioimmunoprecipitation assay (RIPA) buffer (Sigma-Aldrich, St. Louis, MO, USA) and the proteins were separated by SDS-PAGE (Bio-Rad Laboratories, Hercules, CA, USA) and transferred to polyvinylidene fluoride membranes (EMD Millipore, Billerica, MA, USA). The proteins were detected with anti-BTK Y223 (Cell Signaling Technology, Danvers, MA, USA), anti-BTK (53/BTK, Cell Signaling Technology) and anti-glyceraldehyde 3-phosphate dehydrogenase (anti-GAPDH) (Santa Cruz Biotechnology, Santa Cruz, CA, USA) antibodies. The protein signals were monitored by chemiluminescence using Enhanced ChemiLuminescence (ECL) western blotting detection reagent (EMD Millipore), and the scanned blots were quantified using a Multi-Image analyzer (Fujifilm, Japan). The phosphorylation % of each lane was determined using Multi-Gauge software (Fujifilm). The IC50 value was measured using control α-IgM+ set at 100% and control α-IgM− set at 0%.
The Ramos cells (~3 × 10^6) were cultured in 6-well cell culture plates. Both the control and ginsenoside compounds were dissolved in DMSO. For the Western blotting, the α-IgM- groups and α-IgM+ groups in the presence of DMSO were used as the non-stimulation control and stimulation control, respectively, following by the quantitation of the expression ratio of p-BTK, BTK, and β-tubulin. The expression level of each p-BTK and the expression level of BTK were compared and analyzed using the ratios (p-BTK/β-tubulin and BTK/β-tubulin) based on the expression level of each β-tubulin. Namely, the p-BTK/BTK ratio means the (p-BTK/β-tubulin)/(BTK/β-tubulin) ratio, which is simply expressed as p-BTK/BTK.

[4] = read-out: IC50 levels that inhibited BTK activity
[5] = solubility-dependent concentration

T1 sequence (Q06187 whole entry): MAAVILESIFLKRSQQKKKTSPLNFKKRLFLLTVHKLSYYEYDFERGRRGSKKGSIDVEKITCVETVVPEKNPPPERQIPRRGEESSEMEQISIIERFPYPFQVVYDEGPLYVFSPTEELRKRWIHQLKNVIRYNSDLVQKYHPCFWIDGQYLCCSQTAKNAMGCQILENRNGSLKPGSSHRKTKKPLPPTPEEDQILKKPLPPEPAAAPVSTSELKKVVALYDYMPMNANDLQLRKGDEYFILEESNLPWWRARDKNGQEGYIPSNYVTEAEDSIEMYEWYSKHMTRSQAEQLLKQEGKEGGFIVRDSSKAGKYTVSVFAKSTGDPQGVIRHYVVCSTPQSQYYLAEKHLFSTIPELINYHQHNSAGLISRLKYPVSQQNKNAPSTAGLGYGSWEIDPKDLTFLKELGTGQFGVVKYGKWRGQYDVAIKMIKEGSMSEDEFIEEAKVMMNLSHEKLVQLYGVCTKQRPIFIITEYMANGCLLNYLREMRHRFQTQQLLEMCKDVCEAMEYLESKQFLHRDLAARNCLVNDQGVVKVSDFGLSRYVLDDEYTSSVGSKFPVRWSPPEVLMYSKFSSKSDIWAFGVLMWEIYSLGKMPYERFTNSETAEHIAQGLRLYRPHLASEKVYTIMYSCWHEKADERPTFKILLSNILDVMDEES
Chain of purified BTK (Q06187 whole entry): as above

Row | SMILES | BTK inhibitory effect (inhibition %) (purified BTK) [%] | IC50 (purified BTK; [4]) [µM] | appearance / solubility in the medium [1] | solubility in the medium, overall [1] | absorbance at 540 nm increased compared to the control ([1]; 0.5 mM) | BTK inhibitory activity (p-BTK/BTK, ELISA) (BTK [2]; at low concentrations) [%] | BTK inhibitory activity (p-BTK/BTK, ELISA), in words (BTK [2]; [5]) | BTK inhibitory activity (p-BTK/BTK, Western blotting) (BTK [3]) | solubility in the medium, overall ([1]; RPMI medium) | BTK inhibitory activity (p-BTK/BTK, ELISA) (BTK [2]; [5]) [%] | also measured
1 | CC(C)=CCC[C@](C)(O)[C@H]1CC[C@]2(C)[C@@H]1[C@H](O)C[C@@H]1[C@@]3(C)CC[C@H](O)C(C)(C)[C@@H]3[C@@H](O)C[C@]12C [PPT, protopanaxatriol] | ≥ 70 | 136 | intensively turbid | poorly soluble in the medium at higher concentrations | 0.309 | 15.98 | substantial BTK inhibitory activity | about 30% |  |  | absorbance at 540 nm increased compared to the control ([1]; 0.8 mM): 0.508; absorbance at 540 nm increased compared to the control ([1]; 1.7 mM): 1.118
2 | CC(C)=CCCC(C)(O)C1CCC2(C)C1C(O)CC1C3(C)CCC(O)C(C)(C)C3CCC12C (stereo not drawn) [PPD, protopanaxadiol] |  |  | turbid | poorly soluble in the medium at higher concentrations | 0.442 | 9.58 | substantial BTK inhibitory activity | about 40% |  |  | absorbance at 540 nm increased compared to the control ([1]; 0.2 mM): 0.155; absorbance at 540 nm increased compared to the control ([1]; 1 mM): 0.835; absorbance at 540 nm increased compared to the control ([1]; 1.5 mM): 1.153
3 | CC(C)=CCCC(C)(OC1OC(COC2OCC(O)C(O)C2O)C(O)C(O)C1O)C1CCC2(C)C1C(O)CC1C3(C)CCC(OC4OC(CO)C(O)C(O)C4OC4OC(CO)C(O)C(O)C4O)C(C)(C)C3CCC12C (stereo not drawn) [Rb3] | ≥ 70 | 51 |  |  |  |  | substantial BTK inhibitory activity | ~ 17% | soluble in the medium at a high concentration | > 23 | absorbance at 540 nm increased compared to the control ([1]; 0.9 mM in RPMI medium): 0.047; appearance / solubility in the medium ([1]; 0.9 mM in RPMI medium): transparent; absorbance at 540 nm reduced compared to the control ([1]; 2.7 mM in RPMI medium): 0.004
4 | CC(C)=CCCC(C)(O)C1CCC2(C)C1C(O)CC1C3(C)CCC(OC4OC(CO)C(O)C(O)C4O)C(C)(C)C3CCC12C (stereo not drawn) [Rh2] | ≥ 70 |  |  |  |  |  |  |  | soluble in the medium at a low concentration, while insoluble at a high concentration |  | IC50 (purified BTK; IC50 levels that inhibited BTK activity): 61.1 µM; absorbance at 540 nm increased compared to the control ([1]; 0.4 mM in RPMI medium): 0.037; absorbance at 540 nm increased compared to the control ([1]; 0.6 mM in RPMI medium): 0.111; absorbance at 540 nm increased compared to the control ([1]; 1.2 mM in RPMI medium): 0.271; appearance / solubility in the medium ([1]; 1.2 mM in RPMI medium): slightly soluble
5 | CC(C)=CCCC(C)(OC1OC(COC2OCC(O)C(O)C2O)C(O)C(O)C1O)C1CCC2(C)C1C(O)CC1C3(C)CCC(OC4OC(CO)C(O)C(O)C4OC4OC(CO)C(O)C(O)C4O)C(C)(C)C3CCC12C (stereo not drawn) [Rb2] | ≥ 70 | 9.27 |  |  |  |  | substantial BTK inhibitory activity | ~ 17% | soluble in the medium at a high concentration | > 23 | absorbance at 540 nm increased compared to the control ([1]; 0.2 mM in RPMI medium): 0.042; appearance / solubility in the medium ([1]; 0.2 mM in RPMI medium): transparent; absorbance at 540 nm decreased compared to the control ([1]; 0.6 mM in RPMI medium): 0.007; absorbance at 540 nm decreased compared to the control ([1]; 1.0 mM in RPMI medium): 0.006
